Assays:
Human factor Xa = Human factor Xa (Homo sapiens, UniProt P00742); assay: Xa Assay; assay type: biochemical; parameters: purchased Enzyme Research Laboratories, South Bend Ind; conditions: for inhibition at 100 µM: at 100 μM inhibitor; for % Inhibition Factor Xa (100 µM): inhibitor at 100 µM
[1] = target: T1, recombinant soluble tissue factor and recombinant human factor VIIa (TF-VIIa) (Homo sapiens, UniProt P08709); assay: TF-VIIa Assay; assay type: biochemical; conditions: for IC50: read-out: IC50 TF-VIIa; for % Inhibition TF-VIIa (100 µM): inhibitor at 100 µM
T1 construct: conversion of coagulation factor VII to VIIa by Xa; purchased American Diagnostica, Greenwich Conn; host or cells: VIIa purchased; soluble TF made in house in E. coli
T1 sequence (P08709 61-212 limits assumed): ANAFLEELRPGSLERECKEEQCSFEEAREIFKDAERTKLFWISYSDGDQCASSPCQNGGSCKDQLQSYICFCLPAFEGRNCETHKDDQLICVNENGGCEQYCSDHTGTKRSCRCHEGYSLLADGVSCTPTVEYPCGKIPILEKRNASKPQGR
T1 sequence (P08709 213-466 limits assumed): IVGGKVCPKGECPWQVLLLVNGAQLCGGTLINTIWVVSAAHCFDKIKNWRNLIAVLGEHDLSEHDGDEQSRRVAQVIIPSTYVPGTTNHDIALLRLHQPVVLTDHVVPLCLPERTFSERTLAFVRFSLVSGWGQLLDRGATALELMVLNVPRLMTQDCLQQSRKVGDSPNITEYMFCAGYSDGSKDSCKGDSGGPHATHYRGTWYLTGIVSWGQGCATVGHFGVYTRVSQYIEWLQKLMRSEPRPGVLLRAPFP
T1 sequence (P13726 33-251 partner limits assumed): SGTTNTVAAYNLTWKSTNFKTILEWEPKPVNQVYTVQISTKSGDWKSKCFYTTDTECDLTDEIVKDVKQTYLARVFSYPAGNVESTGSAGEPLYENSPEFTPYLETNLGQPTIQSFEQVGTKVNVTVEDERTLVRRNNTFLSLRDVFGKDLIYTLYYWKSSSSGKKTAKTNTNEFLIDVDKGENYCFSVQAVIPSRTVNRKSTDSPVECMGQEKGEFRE

Chain of Human factor Xa (P00742 41-179 limits assumed): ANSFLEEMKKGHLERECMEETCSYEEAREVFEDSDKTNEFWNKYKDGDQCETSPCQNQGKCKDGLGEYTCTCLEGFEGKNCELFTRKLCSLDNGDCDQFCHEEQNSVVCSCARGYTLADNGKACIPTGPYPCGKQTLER
Chain of Human factor Xa (P00742 235-488 limits assumed): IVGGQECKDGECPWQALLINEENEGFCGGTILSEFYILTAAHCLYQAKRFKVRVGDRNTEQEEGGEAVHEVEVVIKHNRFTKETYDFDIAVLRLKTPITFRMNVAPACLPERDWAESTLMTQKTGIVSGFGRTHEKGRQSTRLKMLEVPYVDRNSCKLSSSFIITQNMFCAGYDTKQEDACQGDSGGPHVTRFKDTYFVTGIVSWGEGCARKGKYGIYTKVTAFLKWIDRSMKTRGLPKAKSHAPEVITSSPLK

Compound | % Inhibition Factor Xa (100 µM) (Human factor Xa) [%] | % Inhibition TF-VIIa (100 µM) [1] [%] | further results
N=C(N)c1ccc(C(=O)NCCn2c(-c3cccc(N)c3)c(Cl)nc(NC3CCC3)c2=O)cc1 [Example 136] |  |  | inhibition at 100 µM (Human factor Xa): 15%; IC50 [1]: 10.7 µM
N=C(N)c1ccc(C(O)CCCn2c(-c3cccc(N)c3)c(Cl)nc(NC3CCC3)c2=O)cc1 (stereo not shown) [Example 143] |  |  | inhibition at 100 µM (Human factor Xa): 30%; IC50 [1]: 43.2 µM
NC1=NCCSc2cc(CNC(=O)Cn3c(-c4cccc(N)c4)c(Cl)nc(NC4CCC4)c3=O)ccc21 [Example 154] |  |  | % Inhibition Factor Xa (30 µM) (Human factor Xa; at 30 µM inhibitor): 6%; inhibition at 30 µM ([1]; 1 h, at 30 µM inhibitor): 7%
N=C(N)c1ccc(CNC(=O)C(Cc2ccccc2)n2c(-c3ccccc3)c(Cl)nc(NC3CCC3)c2=O)cc1 (stereo not shown) [Example 1517-08] |  |  | % Inhibition Factor Xa (30 µM) (Human factor Xa; at 30 µM inhibitor): 0%; % Inhibition TF-VIIa (30 µM) ([1]; at 30 µM inhibitor): 43%
N=C(N)c1ccc(CNC(=O)C(Cc2ccccc2)n2c(-c3ccccc3)c(Cl)nc(NCCc3ccccc3)c2=O)cc1 (stereo not shown) [Example 1517-14] |  |  | % Inhibition Factor Xa (30 µM) (Human factor Xa; at 30 µM): 0%; % Inhibition TF-VIIa (30 µM) ([1]; at 30 µM): 30%
N=C(N)c1ccc(CNC(=O)C(Cc2ccccc2)n2c(-c3ccccc3)c(Cl)nc(NCCc3cccc(Cl)c3)c2=O)cc1 (stereo not shown) [Example 1517-20] |  |  | % Inhibition Factor Xa (30 µM) (Human factor Xa; at 30 µM): 0%; % Inhibition TF-VIIa (30 µM) ([1]; at 30 µM): 22%
CCCCNc1nc(Cl)c(-c2ccccc2)n(CC(=O)NCc2ccc(C(=N)N)cc2)c1=O [Example 1517-35] |  |  | % Inhibition Factor Xa (30 µM) (Human factor Xa; at 30 µM): 0%; % Inhibition TF-VIIa (30 µM) ([1]; at 30 µM): 33%
N=C(N)c1ccc(CNC(=O)Cn2c(-c3ccccc3)c(Cl)nc(NCC3CC3)c2=O)cc1 [Example 1517-43] |  |  | % Inhibition Factor Xa (30 µM) (Human factor Xa; at 30 µM): 0%; % Inhibition TF-VIIa (30 µM) ([1]; at 30 µM): 25%
Cc1c(Cl)nc(NCc2ccccc2)c(=O)n1CC(=O)NCCc1ccncc1 [Example E-0001] | 1 | 0 | 
Cc1c(Cl)nc(NCCc2ccccc2)c(=O)n1CC(=O)NCCc1ccncc1 [Example E-0002] | 0 | 0 | 
Cc1c(Cl)nc(NCCc2cccc(Cl)c2)c(=O)n1CC(=O)NCCc1ccncc1 [Example E-0003] | 0 | 0 | 
Cc1c(Cl)nc(NCCc2ccc(Cl)cc2)c(=O)n1CC(=O)NCCc1ccncc1 [Example E-0004] | 0 | 0 | 
Cc1c(Cl)nc(NCCc2cccnc2)c(=O)n1CC(=O)NCCc1ccncc1 [Example E-0005] | 0 | 0 | 
Cc1c(Cl)nc(NCCc2ccncc2)c(=O)n1CC(=O)NCCc1ccncc1 [Example E-0006] | 0 | 2 | 
Cc1c(Cl)nc(NCCN2CCOCC2)c(=O)n1CC(=O)NCCc1ccncc1 [Example E-0007] | 0 | 0 | 
Cc1c(Cl)nc(NCc2ccncc2)c(=O)n1CC(=O)NCCc1ccncc1 [Example E-0008] | 0 | 0 | 
O=C(Cn1c(-c2ccccc2)c(Cl)nc(NCc2ccccc2)c1=O)NCCc1ccncc1 [Example E-0009] | 1 | 0 | 
O=C(Cn1c(-c2ccccc2)c(Cl)nc(NCCc2ccccc2)c1=O)NCCc1ccncc1 [Example E-0010] | 0 | 0 | 
O=C(Cn1c(-c2ccccc2)c(Cl)nc(NCCc2cccc(Cl)c2)c1=O)NCCc1ccncc1 [Example E-0011] | 0 | 0 | 
O=C(Cn1c(-c2ccccc2)c(Cl)nc(NCCc2ccc(Cl)cc2)c1=O)NCCc1ccncc1 [Example E-0012] | 0 | 0 | 
O=C(Cn1c(-c2ccccc2)c(Cl)nc(NCCc2cccnc2)c1=O)NCCc1ccncc1 [Example E-0013] | 0 | 0 | 
O=C(Cn1c(-c2ccccc2)c(Cl)nc(NCCc2ccncc2)c1=O)NCCc1ccncc1 [Example E-0014] | 0 | 0 | 
O=C(Cn1c(-c2ccccc2)c(Cl)nc(NCCN2CCOCC2)c1=O)NCCc1ccncc1 [Example E-0015] | 0 | 0 | 
O=C(Cn1c(-c2ccccc2)c(Cl)nc(NCc2ccncc2)c1=O)NCCc1ccncc1 [Example E-0016] | 0 | 0 | 
O=C(Cn1c(-c2ccc(Cl)cc2)c(Cl)nc(NCc2ccccc2)c1=O)NCCc1ccncc1 [Example E-0017] | 0 | 0 | 
O=C(Cn1c(-c2ccc(Cl)cc2)c(Cl)nc(NCCc2ccccc2)c1=O)NCCc1ccncc1 [Example E-0018] | 0 | 1 | 

Source: patent US6908919B2, “Substituted polycyclic aryl and heteroaryl pyrazinones useful for selective inhibition of the coagulation cascade” (Pharmacia Corporation, priority 1999, dated 2005)
